Data from US9085576B2 (AMGEN INC., priority 2013, dated 2015).
Structures can show the parent of a compound that is named as a salt.

Target: Cathepsin D (Cat D) (Homo sapiens (Human), UniProt P07339)
Assay: In vitro enzymatic Cathepsin D (Cat D) FRET assay
Type: biochemical
Details: read-out: CatD IC50

Sequence of Cathepsin D (Cat D) (P07339 65-412, species assumed): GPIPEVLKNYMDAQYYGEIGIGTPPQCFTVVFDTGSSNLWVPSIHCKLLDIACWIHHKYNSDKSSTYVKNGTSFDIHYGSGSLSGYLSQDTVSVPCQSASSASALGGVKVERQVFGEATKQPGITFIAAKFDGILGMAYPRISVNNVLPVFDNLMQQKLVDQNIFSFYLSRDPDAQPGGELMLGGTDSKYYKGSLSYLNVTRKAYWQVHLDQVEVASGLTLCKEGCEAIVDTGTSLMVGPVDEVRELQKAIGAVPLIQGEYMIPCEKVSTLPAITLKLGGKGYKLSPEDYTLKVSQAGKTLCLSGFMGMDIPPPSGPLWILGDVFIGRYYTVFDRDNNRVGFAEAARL

Row | IC50 [µM] | SMILES
1 | 472 | NC1=N[C@](c2cc(NC(=O)c3ccc(Cl)cn3)cc(F)c2F)(C(F)F)[C@@H]2C[C@@H]2O1 [Example 108, N-(3-((1S,5R,6S)-3-amino-5-(difluoromethyl)-2-oxa-4-azabicyclo[4.1.0]hept-3-en-5-yl)-4,5-difluorophenyl)-5-chloropicolinamide]
2 | 213 | NC1=N[C@@](c2cc(NC(=O)c3ccc(Cl)cn3)cc(F)c2F)(C(F)F)[C@H]2C[C@H]2O1 [Example 107, N-(3-((1R,5S,6R)-3-amino-5-(difluoromethyl)-2-oxa-4-azabicyclo[4.1.0]hept-3-en-5-yl)-4,5-difluorophenyl)-5-chloropicolinamide]
3 | 467 | C#Cc1ccc(C(=O)Nc2ccc(F)c([C@@]3(C(F)F)N=C(N)O[C@@H]4C[C@@H]43)c2)nc1 [Example 313, N-(3-((1R,5S,6R)-3-amino-5-(difluoromethyl)-2-oxa-4-azabicyclo[4.1.0]hept-3-en-5-yl)-4-fluorophenyl)-5-ethynylpicolinamide]
4 | 821 | C#CCOc1ccc(C(=O)Nc2ccc(F)c([C@@]3(CF)N=C(N)O[C@@H]4C[C@@H]43)c2)nc1 [Example 205, N-(3-((1R,5S,6R)-3-amino-5-(fluoromethyl)-2-oxa-4-azabicyclo[4.1.0]hept-3-en-5-yl)-4-fluorophenyl)-5-(prop-2-yn-1-yloxy)picolinamide]
5 | > 400 | Cc1cc(NC(=O)c2ncc(C#N)cn2)cc([C@@]2(C(F)F)N=C(N)O[C@@H]3C[C@@H]32)c1F [Example 298, N-(3-((1R,5S,6R)-3-amino-5-(difluoromethyl)-2-oxa-4-azabicyclo[4.1.0]hept-3-en-5-yl)-4-fluoro-5-methylphenyl)-5-cyanopyrimidine-2-carboxamide]
6 | 1160 | N#Cc1ccc(C(=O)Nc2ccc(Cl)c([C@@]3(C(F)F)N=C(N)O[C@@H]4C[C@@H]43)c2)nc1 (racemic) [Example 98, N-(3-(((1R,S), (5S,R), (6R,S))-3-amino-5-(difluoromethyl)-2-oxa-4-azabicyclo[4.1.0]hept-3-en-5-yl)-4-chlorophenyl)-5-cyanopicolinamide trifluoroacetate]
7 | 163 | NC1=N[C@@](c2cc(NC3(c4ccc(Cl)cn4)COC3)ccc2F)(C(F)F)[C@H]2C[C@H]2O1 [Example 332, (1R,5S,6R)-5-(5-((3-(5-chloropyridin-2-yl)oxetan-3-yl)amino)-2-fluorophenyl)-5-(difluoromethyl)-2-oxa-4-azabicyclo[4.1.0]hept-3-en-3-amine]
8 | > 400 | N#Cc1ccc(C(=O)Nc2cc(F)c(F)c([C@@]3(C(F)F)N=C(N)O[C@@H]4C[C@@H]43)c2)nc1 (stereo in doubt) [Example 109, N-(3-((1R,5S,6R)-3-amino-5-(difluoromethyl)-2-oxa-4-azabicyclo[4.1.0]hept-3-en-5-yl)-4,5-difluorophenyl)-5-cyanopicolinamide]
9 | > 400 | NC1=N[C@@](c2cc(Nc3ncc(F)c4cc(Cl)cnc34)ccc2F)(C(F)F)[C@H]2C[C@H]2O1 [Example 361, (1R,5S,6R)-5-(5-((3-chloro-5-fluoro-1,7-naphthyridin-8-yl)amino)-2-fluorophenyl)-5-(difluoromethyl)-2-oxa-4-azabicyclo[4.1.0]hept-3-en-3-amine]
10 | 849 | C#C[C@@H](C)Oc1cnc(C(=O)Nc2ccc(F)c([C@@]3(C(F)F)N=C(N)O[C@@H]4C[C@@H]43)c2)cn1 [Example 148, N-(3-((1R,5S,6R)-3-amino-5-(difluoromethyl)-2-oxa-4-azabicyclo[4.1.0]hept-3-en-5-yl)-4-fluorophenyl)-5-((R)-but-3-yn-2-yloxy)pyrazine-2-carboxamide]
11 | 1230 | Cc1cc(NC(=O)c2ccc(Cl)cn2)cc([C@]2(C(F)F)N=C(N)O[C@H]3C[C@H]32)c1F [Example 124, N-(3-((1 S,5R,6S)-3-amino-5-(difluoromethyl)-2-oxa-4-azabicyclo[4.1.0]hept-3-en-5-yl)-4-fluoro-5-methylphenyl)-5-chloropicolinamide]
12 | 716 | Cc1ccc(NC(=O)c2ccc(C#N)cn2)cc1[C@@]1(C(F)F)N=C(N)O[C@@H]2C[C@@H]21 [Example 269, N-(3-((1R,5S,6R)-3-amino-5-(difluoromethyl)-2-oxa-4-azabicyclo[4.1.0]hept-3-en-5-yl)-4-methylphenyl)-5-cyanopicolinamide]
13 | 220 | COc1c(F)cc(NC(=O)c2ccc(Cl)cn2)cc1[C@@]1(CF)N=C(N)O[C@@H]2C[C@@H]21 [Example 145, N-(3-((1R,5S,6R)-3-amino-5-(fluoromethyl)-2-oxa-4-azabicyclo[4.1.0]hept-3-en-5-yl)-5-fluoro-4-methoxyphenyl)-5-chloropicolinamide]
14 | 56.8 | NC1=N[C@@](c2cc(NC(=O)c3coc(CF)n3)ccc2F)(C(F)F)[C@H]2C[C@H]2O1 [Example 168, N-(3-((1R,5S,6R)-3-amino-5-(difluoromethyl)-2-oxa-4-azabicyclo[4.1.0]hept-3-en-5-yl)-4-fluorophenyl)-2-(fluoromethyl)oxazole-4-carboxamide]
15 | 725 | Cc1cc(C#N)cnc1C(=O)Nc1cc(C)c(F)c([C@@]2(C(F)F)N=C(N)O[C@@H]3C[C@@H]32)c1 [Example 132, N-(3-((1R,5S,6R)-3-amino-5-(difluoromethyl)-2-oxa-4-azabicyclo[4.1.0]hept-3-en-5-yl)-4-fluoro-5-methylphenyl)-5-cyano-3-methylpicolinamide]
16 | 768 | COc1c(F)cc(NC(=O)c2ccc(Cl)cn2)cc1[C@]1(CF)N=C(N)O[C@H]2C[C@H]21 [Example 146, N-(3-((1S,5R,6S)-3-amino-5-(fluoromethyl)-2-oxa-4-azabicyclo[4.1.0]hept-3-en-5-yl)-5-fluoro-4-methoxyphenyl)-5-chloropicolinamide]
17 | 81.9 | NC1=N[C@@](c2cc(NC(=O)c3ccc(Br)cn3)cc(F)c2F)(C(F)F)[C@H]2C[C@H]2O1 [Example 116, N-(3-((1R,5S,6R)-3-amino-5-(difluoromethyl)-2-oxa-4-azabicyclo[4.1.0]hept-3-en-5-yl)-4,5-difluorophenyl)-5-bromopicolinamide]

More lines, now with the values behind:

Row | SMILES | IC50 [µM]
18 | N#Cc1ccc(C(=O)Nc2cc(F)c(F)c([C@@]3(CF)N=C(N)O[C@@H]4C[C@@H]43)c2)nc1 [Example 37, N-(3-((1R,5S,6R)-3-amino-5-(fluoromethyl)-2-oxa-4-azabicyclo[4.1.0]hept-3-en-5-yl)-4,5-difluorophenyl)-5-cyanopicolinamide] | 364
19 | Cc1cc(NC(=O)c2ccc(Cl)cn2)cc([C@@]2(C(F)F)N=C(N)O[C@@H]3C[C@@H]32)c1F [Example 121, N-(3-((1R,5S,6R)-3-amino-5-(difluoromethyl)-2-oxa-4-azabicyclo[4.1.0]hept-3-en-5-yl)-4-fluoro-5-methylphenyl)-5-chloropicolinamide] | 206
20 | COCc1cc(Cl)cnc1C(=O)Nc1ccc(F)c([C@@]2(C(F)F)N=C(N)O[C@@H]3C[C@@H]32)c1 [Example 42, N-(3-((1R,5S,6R)-3-amino-5-(difluoromethyl)-2-oxa-4-azabicyclo[4.1.0]hept-3-en-5-yl)-4-fluorophenyl)-5-chloro-3-(methoxymethyl) picolinamide] | 736
21 | N#Cc1ccc(C(=O)Nc2ccc(F)c([C@]3(C(F)F)N=C(N)O[C@H]4C[C@H]43)c2)nc1 (racemic) [Example 59, N-(3-([1(R,S),5(S,R),6(R,S)]-3-amino-5-(difluoromethyl)-2-oxa-4-azabicyclo[4.1.0]hept-3-en-5-yl)-4-fluorophenyl)-5-cyanopicolinamide compound] | 899
22 | N#Cc1cnc(C(=O)Nc2ccc(F)c([C@]3(C(F)F)N=C(N)O[C@H]4C[C@H]43)c2)c(Cl)c1 [Example 67, N-(3-((1S,5R,6S)-3-amino-5-(difluoromethyl)-2-oxa-4-azabicyclo[4.1.0]hept-3-en-5-yl)-4-fluorophenyl)-3-chloro-5-cyanopicolinamide] | 1290
23 | N#Cc1ccc(C(=O)Nc2cnc(F)c([C@]3(C(F)F)N=C(N)O[C@H]4C[C@H]43)c2)nc1 (racemic) [Example 75, N-(5-([1(R,S),5(S,R),6(R,S)]-3-amino-5-(difluoromethyl)-2-oxa-4-azabicyclo[4.1.0]hept-3-en-5-yl)-6-fluoropyridin-3-yl)-5-cyanopicolinamide] | 348
24 | COc1c(F)cc(NC(=O)c2ccc(Cl)cn2)cc1[C@@]1(CF)N=C(N)O[C@@H]2C[C@@H]21 (racemic) [Example 31, N-(3-([(1R,S),(5S,R),(6R,S)]-3-amino-5-(fluoromethyl)-2-oxa-4-azabicyclo[4.1.0]hept-3-en-5-yl)-5-fluoro-4-methoxyphenyl)-5-chloropicolinamide] | 339
25 | N#Cc1cnc(C(=O)Nc2ccc(F)c([C@]3(C(F)F)N=C(N)O[C@H]4C[C@H]43)c2)c(Cl)c1 (racemic) [Example 62, N-(3-([1(R,S),5(S,R),6(R,S)]-3-amino-5-(difluoromethyl)-2-oxa-4-azabicyclo[4.1.0]hept-3-en-5-yl)-4-fluorophenyl)-3-chloro-5-cyanopicolinamide] | 1100
26 | N#Cc1ccc(C(=O)Nc2ccc(Cl)c([C@]3(C(F)F)N=C(N)O[C@H]4C[C@H]43)c2)nc1 [Example 94, N-(3-((1S,5R,6S)-3-amino-5-(difluoromethyl)-2-oxa-4-azabicyclo[4.1.0]hept-3-en-5-yl)-4-chlorophenyl)-5-cyanopicolinamide] | 1920
27 | N#Cc1ccc(C(=O)Nc2cc(F)c(F)c([C@]3(CF)N=C(N)O[C@H]4C[C@H]43)c2)nc1 [Example 38, N-(3-((1S,55,6S) 3-amino-5-(fluoromethyl)-2-oxa-4-azabicyclo[4.1.0]hept-3-en-5-yl)-4,5-difluorophenyl)-5-cyanopicolinamide] | 2620
28 | COc1ccc(C(=O)Nc2cc(F)c(F)c([C@@]3(CF)N=C(N)O[C@@H]4C[C@@H]43)c2)nc1 [Example 41, N-(3-((1R,5S,6R)-3-amino-5-(fluoromethyl)-2-oxa-4-azabicyclo[4.1.0]hept-3-en-5-yl)-4,5-difluorophenyl)-5-methoxypicolinamide] | 238
29 | Cc1cc(NC(=O)c2ccc(Cl)cn2)cc([C@@]2(C(F)F)N=C(N)O[C@@H]3C[C@@H]32)c1F [Example 123, N-(3-((1R,5S,6R)-3-amino-5-(difluoromethyl)-2-oxa-4-azabicyclo[4.1.0]hept-3-en-5-yl)-4-fluoro-5-methylphenyl)-5-chloropicolinamide] | 257
